US6943190B2, “Method of using pyruvate and/or its derivatives for the treatment of cytokine-mediated inflammatory conditions” (University of Pittsburgh-of the Commonwealth System of …, priority 2001, dated 2005)

How the values were obtained:
[1] = test system: lethal endotoxemia (E. coli lipopolysaccharide); assay: Lethal endotoxemia (LPS) in mice: survival and morbidity; format: in vivo, Balb/C mice; details: for survival: P<0.005
Protocol: Animal Experiments. Male 6-8 week old Balb/C mice (20-25 g) were purchased from Harlen Sprague-Dawley (Indianapolis, Ind.) and allowed to acclimate for 7 days housed at 25° C. on a 12 h light/dark cycle. Animals were randomly grouped (10 mice per group) and assigned to a specific experiment. All animal experiments were performed in accordance with the National Institutes of Health Guidelines under protocols approved by the Institutional Animal Care and Use Committee of North Shore University Hospital and New York University Medical School.
(§1) Endotoxin shock. Mice were injected with endotoxin (Escherichia coli lipopolysaccharide, LPS 0111:B4; Sigma Chemical Co, St. Louis, Mo.) that was dissolved in sterile pyrogen-free saline at stock concentrations of 10 mg/ml. LPS solutions were sonicated for 20 min immediately prior to use for each experiment. Mice received an LD75 dose of LPS (5 mg/kg, i.p.). Blood was collected at different times after LPS administration, allowed to clot for 2 h at room temperature, then centrifuged for 20 min at 1,500 g. Serum samples were stored at […] prior to analysis. Mortality was recorded for up to 3 weeks after injection to ensure that no additional late deaths occurred.
Ethyl Pyruvate Solution: Ethyl pyruvate was prepared in solution with sodium (130 mM), potassium (4 mM), calcium (2.7 mM), chloride (130 mM), and ethyl pyruvate (28 mM); pH 7.0). For injections in mice solutions were diluted so that each injection volume was 0.4 ml per dose.
The initial evaluation of ethyl pyruvate (EP) was conducted as a therapeutic solution in lethal systemic inflammation in a standard model of murine endotoxemia. Balb/c mice received a single dose of ethyl pyruvate (40 mg ethyl pyruvate/kg mouse) 30 minutes before the onset of lethal endotoxemia (E. coli lipopolysaccharide, LPS, 5 mg LPS/kg, i.p.). Ethyl pyruvate pretreatment protected BALB/c mice from lethal endotoxemia (ethyl pyruvate survival=20/20 versus vehicle control survival=3/20; P<0.005) (FIG. 3A).
The therapeutic efficacy of the delayed administration of ethyl pyruvate after the onset of endotoxemia was assessed. Ethyl pyruvate dosing in endotoxemic mice was initiated 4 hours after the onset of endotoxemia, when clinical signs were already evident, including diarrhea, piloerection, and depressed spontaneous activity (FIG. 4A).

[2] = test system: HMGB-1; assay: Serum HMGB-1 in endotoxemic mice (western blot); format: in vivo, Balb/C mice; details: for serum HMGB1: pretreatment 40 mg/kg 30 min before LPS, measured 20 hours after onset of endotoxemia
Protocol: as §1
Cytokine measurements. TNF concentration in mouse serum and in conditioned media from RAW 264.7 cell cultures was measured by ELISA (minimum detectable concentration=10 pg/ml). Recombinant mouse TNF standards were obtained from R&D Systems (Inc., Minneapolis, Minn.) and dissolved in 0.1% bovine serum albumin solution (BSA, low endotoxin grade from Sigma Chemical Co., St. Louis, Mo.). Monoclonal antibody to mouse TNF was purchased from Biosource International, Inc., Camarillo, Calif. Human TNF monoclonal antibody, human TNF antiserum and mouse TNF antiserum were prepared and contributed by Dr. Christine Metz. Mouse serum IL-6 and IL-1β levels were measured using ELISA kits (R&D Systems, Inc., Minneapolis, Minn.). HMGB-1 was analyzed by western blot as previously described by Wang et al, 1999. […] Protein was electroblotting to Immun-blot PVDF membrane (Bio-rad, Hercules Calif.) and HMGB-1 was analyzed using polyclonal 241 antibody and secondary anti-rabbit horseradish peroxidase (Amersham, Pitscataway, N.J.). Standard curves were constructed using r-HMGB-1, and the intensity of the 30 kD band analyzed by densitometry. […]
The therapeutic efficacy of the delayed administration of ethyl pyruvate after the onset of endotoxemia was assessed. […]

[3] = test system: IL6; assay: Peak serum IL6 in endotoxemic mice (ELISA); format: in vivo, Balb/C mice; details: pretreatment, data not shown
Protocol: as §1
Cytokine measurements. TNF concentration in mouse serum and in conditioned media from RAW 264.7 cell cultures was measured by ELISA (minimum detectable concentration=10 pg/ml). […] Mouse serum IL-6 and IL-1β levels were measured using ELISA kits (R&D Systems, Inc., Minneapolis, Minn.). HMGB-1 was analyzed by western blot as previously described by Wang et al, 1999. […] Protein was electroblotting to Immun-blot PVDF membrane (Bio-rad, Hercules Calif.) and HMGB-1 was analyzed using polyclonal 241 antibody and secondary anti-rabbit horseradish peroxidase (Amersham, Pitscataway, N.J.). Standard curves were constructed using r-HMGB-1, and the intensity of the 30 kD band analyzed by densitometry. […]

[4] = test system: p38 MAPK; assay: LPS-induced p38 MAPK phosphorylation in RAW264.7 cells (western blot); format: cell-based, murine
Protocol: (a) RAW264.7 cells were stimulated with LPS in the presence of the indicated concentrations of ethyl pyruvate. The activation of NF-kB was analyzed by EMSA at 15 min and 4 hours using a ^32P-labeled NF-B probe. Ethyl pyruvate suppressed activation of NF-B in an ethyl pyruvate concentration dependent fashion. The experiment was repeated 3 times. (b) Supershift and competition studies. Nuclear extract of macrophages stimulated with LPS and incubated with antibody against p65-Rel to induce specific supershift of NF-κB complex. Nuclear extracts were incubated with 100-fold molar excess of unlabeled (cold) NP-κB or HIF-1 probe for competition analysis. (c) RAW264.7 cells were stimulated with LPS in the presence of the indicated concentration of ethyl pyruvate. The phosphorylation of p38MAPK was analyzed by western blot using antibodies against phosphorylated (thr180/tyr182) p38MAPK (in accordance with the manufacturer (New England Biolabs, Inc Cat. # 9210, Beverly, Mass.). (d) The total amount of p38 MAPK is visualized by western blot. Ethyl pyruvate prevents the phosphorylation of p38MAPK in macrophage cultures without affecting the intracellular level of total p38MAPK; and
Cell Culture. […]

## CCOC(=O)C(C)=O [ethyl pyruvate]
[1]; delayed treatment beginning 4 hours after LPS
  clinical signs of morbidity: reversed clinical signs of morbidity
[1]; delayed treatment: 40 mg/kg i.p. at 4, 8, 12, 24 and 30 hours after LPS, vehicle 5/20
  survival: 17/20
[1]; pretreatment 40 mg/kg 30 minutes before LPS 5 mg/kg i.p.
  clinical manifestations of endotoxin morbidity: significantly prevented the clinical manifestations of endotoxin morbidity
[1]; pretreatment: single dose 40 mg/kg i.p. 30 minutes before LPS 5 mg/kg i.p., vehicle 3/20
  survival: 20/20
[1]; pretreatment: single dose 40 mg/kg i.p. 30 minutes before LPS 5 mg/kg i.p., vehicle 3/20, listed as EP
  survival: conferred significant protection against lethality
[2]; delayed treatment beginning 4 hours post-LPS, measured at 20 hours
  systemic release of HMGB-1 (serum): significantly attenuated the systemic release of HMGB-1
[2]
  serum HMGB1: significantly attenuated
[2]; listed as Ethyl pyruvate
  serum HMGB1: significantly inhibits serum HMGB-1 levels
[3]
  peak serum level of IL6: attenuated
[4]; antibodies against phosphorylated (thr180/tyr182) p38MAPK
  LPS-induced phosphorylation of p38 MAPK: prevented the LPS-induced phosphorylation and subsequent activation of p38 MAPK
[4]; specificity control, western blot
  total levels of p38 MAPK: did not significantly influence the total levels of p38 MAPK
